What is called IC50 is the concentration at which inhibition is half-maximal.

Numbered stars: 1 amine (or outer) side, 2 acyl side, 3 side chain; on linkers, the order of the positions; unused ones are H or OH. Bridge positions count the residues as written; N and C are the ends. Square brackets hold non-standard residues; d marks the D form. Peptide text beside a SMILES is read from it. I, II: the chains in the order shown. * marks the point of attachment. Phe(4-tBu) = CC(C)(C)c1ccc(C[C@H](N)C(=O)O)cc1; 1Nal = N[C@@H](Cc1cccc2ccccc12)C(=O)O; 2Nal = N[C@@H](Cc1ccc2ccccc2c1)C(=O)O; Diglycolyl = O=C(COCC(=O)[*:2])[*:1]; NMeR = CN[C@@H](CCCNC(=N)N)C(=O)O; Myristoyl = CCCCCCCCCCCCCC(=O)*; Tic = O=C(O)[C@@H]1Cc2ccccc2CN1; β3hE = N[C@@H](CCC(=O)O)CC(=O)O; Pen = CC(C)(S)[C@H](N)C(=O)O; hLeu = CC(C)CC[C@H](N)C(=O)O; Dap = NC[C@H](N)C(=O)O Bounds are passed on as bounds.

α4β7, sequence (P13612 34-1032): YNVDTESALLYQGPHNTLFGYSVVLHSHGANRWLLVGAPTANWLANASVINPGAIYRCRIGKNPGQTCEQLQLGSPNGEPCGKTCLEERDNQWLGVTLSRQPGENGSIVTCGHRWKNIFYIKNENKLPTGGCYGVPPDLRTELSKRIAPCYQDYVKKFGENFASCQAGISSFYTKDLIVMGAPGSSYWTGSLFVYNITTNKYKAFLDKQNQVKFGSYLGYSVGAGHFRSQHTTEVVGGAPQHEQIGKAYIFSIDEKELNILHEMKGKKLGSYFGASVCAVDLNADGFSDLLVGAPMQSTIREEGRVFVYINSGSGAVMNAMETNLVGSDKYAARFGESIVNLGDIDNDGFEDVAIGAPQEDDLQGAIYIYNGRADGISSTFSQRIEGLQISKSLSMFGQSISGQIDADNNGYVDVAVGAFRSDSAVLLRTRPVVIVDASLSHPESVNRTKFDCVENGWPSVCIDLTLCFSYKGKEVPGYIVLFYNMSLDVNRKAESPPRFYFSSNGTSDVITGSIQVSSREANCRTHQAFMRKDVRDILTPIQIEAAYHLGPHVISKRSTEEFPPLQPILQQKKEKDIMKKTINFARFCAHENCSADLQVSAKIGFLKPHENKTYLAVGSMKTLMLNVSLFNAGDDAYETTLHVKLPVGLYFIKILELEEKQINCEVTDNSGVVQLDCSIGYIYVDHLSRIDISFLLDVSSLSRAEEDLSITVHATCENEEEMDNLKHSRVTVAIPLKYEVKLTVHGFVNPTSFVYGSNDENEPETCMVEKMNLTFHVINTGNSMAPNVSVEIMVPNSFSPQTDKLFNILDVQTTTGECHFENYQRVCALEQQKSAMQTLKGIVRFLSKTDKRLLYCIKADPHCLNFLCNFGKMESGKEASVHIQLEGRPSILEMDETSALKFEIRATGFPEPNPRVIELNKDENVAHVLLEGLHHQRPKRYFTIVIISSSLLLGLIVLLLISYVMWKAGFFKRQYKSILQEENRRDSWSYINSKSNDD
α4β7, sequence (P26010 20-798): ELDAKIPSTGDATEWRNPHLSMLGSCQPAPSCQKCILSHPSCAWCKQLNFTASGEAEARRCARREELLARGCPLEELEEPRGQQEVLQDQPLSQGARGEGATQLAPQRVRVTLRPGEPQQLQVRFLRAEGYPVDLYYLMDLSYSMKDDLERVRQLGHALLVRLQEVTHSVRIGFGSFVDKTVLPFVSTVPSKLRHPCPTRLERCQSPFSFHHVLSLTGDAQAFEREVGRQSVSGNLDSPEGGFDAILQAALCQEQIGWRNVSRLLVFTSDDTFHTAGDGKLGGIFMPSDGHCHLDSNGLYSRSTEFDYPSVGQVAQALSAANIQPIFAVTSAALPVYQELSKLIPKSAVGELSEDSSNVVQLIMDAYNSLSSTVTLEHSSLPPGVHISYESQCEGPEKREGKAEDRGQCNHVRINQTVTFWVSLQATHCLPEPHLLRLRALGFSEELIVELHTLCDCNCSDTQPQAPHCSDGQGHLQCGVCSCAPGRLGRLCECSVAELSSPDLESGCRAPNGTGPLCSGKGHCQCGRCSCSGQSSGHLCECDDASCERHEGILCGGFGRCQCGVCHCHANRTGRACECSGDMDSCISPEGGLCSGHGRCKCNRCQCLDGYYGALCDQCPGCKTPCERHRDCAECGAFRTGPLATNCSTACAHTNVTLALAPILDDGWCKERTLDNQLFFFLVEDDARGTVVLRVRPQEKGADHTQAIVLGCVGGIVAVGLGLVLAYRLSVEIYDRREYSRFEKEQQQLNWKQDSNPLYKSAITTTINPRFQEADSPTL

This assay has as its target α4β7 (Homo sapiens, UniProt P13612+P26010). Kind of assay: α4β7-MAdCAM Cell Adhesion Assay (RPMI 8866 human cells). The class given is cell-based. Further details: host or cells: RPMI 8866 human B lymphoblastoid cells. The settings on record: Table 3-B, Potency (α4β7); range classes; read-out: α4β7 cell (Hu) IC50. Here is the method:
RPMI 8866 human cells (Sigma #95041316) were cultured in RPMI 1640 HEPES medium (Invitrogen #22400-089) supplemented with 10% serum (Fetal Bovine Serum, Invitrogen #16140-071), 1 mM sodium pyruvate (Invitrogen #11360-070), 2 mM L-glutamine (Invitrogen #25030-081) and Penicillin-Streptomycin (Invitrogen #15140-122) at 100 units of penicillin and 100 μg of streptomycin per ml. The cells were washed two times in DMEM medium (ATCC #30-2002) supplemented with 0.1% BSA, 10 mM HEPES pH 7 and 1 mM MnCl2. The cells were re-suspended in supplemented DMEM medium at a density of 4×10^6 cells/ml.
A Nunc MaxiSorp plate was coated with rh MAdCAM-1/Fc Chimera (R&D #6065-MC) at 200 ng per well in 50 ul per well in 1×PBS and incubated at 4° C. overnight. The solution was then removed by shaking, blocked with 250 ul per well PBS containing 1% BSA, and incubated at 37° C. for 1 hr. The solution was removed by shaking. Peptides were diluted by serial dilution in a final volume of 50 ul per well (2× concentration). To each well, 50 ul of cells (200,000 cells) were added and the plate was incubated at 37° C., 5% CO2 for 30-45 min to allow cell adhesion. The wells were washed manually three times (100 ul per wash) with supplemented DMEM. After the final wash, 100 ul/well of supplemented DMEM and 10 ul/well of MTT reagent (ATTC cat#30-1010K) were added. The plate was incubated at 37° C., 5% CO2 for 2-3 hrs until a purple precipitate was visible. 100 ul of Detergent Reagent (ATTC cat#30-1010K) was added to each well. The plate was covered from the light, wrapped in Parafilm to prevent evaporation, and left overnight at room temperature in the dark. The plate was shaken for 5 min and the absorbance at 570 nm was measured. To calculate the dose response, the absorbance value of control wells not containing cells was subtracted from each test well.
As to `CCCCCCCCCCCCCC(=O)N[C@@H]1C(=O)N(C)[C@@H](CCCNC(=N)N)C(=O)N[C@@H](CO)C(=O)N[C@@H](CC(=O)O)C(=O)N[C@@H]([C@@H](C)O)C(=O)N[C@@H](CC(C)C)C(=O)N[C@H](C(=O)N[C@@H](Cc2ccc(C(C)(C)C)cc2)C(=O)N[C@@H](CCC(=O)O)CC(=O)N[C@H](CCCCN)C(N)=O)C(C)(C)SSC1(C)C` [compound 181] (Myristoyl-[Pen][NMeR]SDTL[Pen][Phe(4-tBu)][β3hE][dK]-NH2; disulfide 1-7), the IC50 lay within 1000 to 10000 nM.
Take `CC(=O)N[C@@H]1C(=O)N(C)[C@@H](CCCNC(=N)N)C(=O)N[C@@H](CO)C(=O)N[C@@H](CC(=O)O)C(=O)N[C@@H]([C@@H](C)O)C(=O)N[C@@H](CC(C)C)C(=O)N[C@H](C(=O)N2Cc3ccccc3C[C@H]2C(=O)N[C@H](CCC(=O)O)C(=O)N[C@H](CCCCNC(=O)COCC(=O)NCCCC[C@@H](NC(=O)[C@@H](CCC(=O)O)NC(=O)[C@@H]2Cc3ccccc3CN2C(=O)[C@@H]2CSSC(C)(C)[C@H](NC(C)=O)C(=O)N(C)[C@@H](CCCNC(=N)N)C(=O)N[C@@H](CO)C(=O)N[C@@H](CC(=O)O)C(=O)N[C@@H]([C@@H](C)O)C(=O)N[C@@H](CC(C)C)C(=O)N2)C(N)=O)C(N)=O)CSSC1(C)C` [compound 93] (I: Ac-[Pen][NMeR]SDTLC[Tic][dE][dK]-NH2 / II: Ac-[Pen][NMeR]SDTLC[Tic][dE][dK]-NH2; disulfide I:1-I:7, II:1-II:7; linker I:10-II:10 via Diglycolyl): the IC50 was in the range of 500 to 1000 nM.
The result for `CC(=O)N[C@@H]1C(=O)N(C)[C@@H](CCCNC(=N)N)C(=O)N[C@@H](CO)C(=O)N[C@@H](CC(=O)O)C(=O)N[C@@H]([C@@H](C)O)C(=O)N[C@@H](CC(C)C)C(=O)N[C@H](C(=O)N[C@@H](Cc2c[nH]c3ccccc23)C(=O)N[C@@H](CCC(=O)O)C(=O)N[C@@H](CN)C(N)=O)C(C)(C)SSC1(C)C` [compound 59] (Ac-[Pen][NMeR]SDTL[Pen]WE[Dap]-NH2; disulfide 1-7) reads 10000 to 100000 nM.
In the case of `CC(=O)N[C@@H]1C(=O)N(C)[C@@H](CCCNC(=N)N)C(=O)N[C@@H](CO)C(=O)N[C@@H](CC(=O)O)C(=O)N[C@@H](CCC(C)C)C(=O)N[C@@H](CC(C)C)C(=O)N[C@H](C(=O)N[C@@H](Cc2ccc3ccccc3c2)C(=O)N[C@H](CCC(=O)O)C(N)=O)C(C)(C)SSC1(C)C` [compound 161] (Ac-[Pen][NMeR]SD[hLeu]L[Pen][2Nal][dE]-NH2; disulfide 1-7) it was 1000 to 10000 nM; in that of `CC(=O)N[C@@H]1C(=O)N(C)[C@@H](CCCNC(=N)N)C(=O)N[C@@H](CO)C(=O)N[C@@H](CC(=O)O)C(=O)N[C@@H](CC(C)C)C(=O)N[C@@H](CC(C)C)C(=O)N[C@H](C(=O)N[C@@H](Cc2ccc3ccccc3c2)C(=O)N[C@H](CCC(=O)O)C(N)=O)C(C)(C)SSC1(C)C` [compound 159] (Ac-[Pen][NMeR]SDLL[Pen][2Nal][dE]-NH2; disulfide 1-7), 1000 to 10000 nM; in that of `CC(=O)N[C@@H]1C(=O)N(C)[C@@H](CCCNC(=N)N)C(=O)N[C@@H](CO)C(=O)N[C@@H](CC(=O)O)C(=O)N[C@@H]([C@@H](C)O)C(=O)N[C@@H](CC(C)C)C(=O)N[C@H](C(=O)N[C@@H](Cc2ccc3ccccc3c2)C(=O)N[C@@H](CCC(=O)O)C(N)=O)C(C)(C)SSC1(C)C` [compound 75] (Ac-[Pen][NMeR]SDTL[Pen][2Nal]E-NH2; disulfide 1-7), 50 to 100 nM.
For the molecule `CC(=O)N[C@@H]1C(=O)N(C)[C@@H](CCCNC(=N)N)C(=O)N[C@@H](CO)C(=O)N[C@@H](CC(=O)O)C(=O)N[C@@H]([C@@H](C)O)C(=O)N[C@@H](CC(C)C)C(=O)N[C@H](C(=O)N[C@@H](Cc2c[nH]c3ccccc23)C(=O)N[C@@H](Cc2ccccc2)C(=O)N[C@H](CCCCNC(=O)COCC(=O)NCCCC[C@@H](NC(=O)[C@H](Cc2ccccc2)NC(=O)[C@H](Cc2c[nH]c3ccccc23)NC(=O)[C@H]2NC(=O)[C@H](CC(C)C)NC(=O)[C@H]([C@@H](C)O)NC(=O)[C@H](CC(=O)O)NC(=O)[C@H](CO)NC(=O)[C@H](CCCNC(=N)N)N(C)C(=O)[C@@H](NC(C)=O)C(C)(C)SSC2(C)C)C(N)=O)C(N)=O)C(C)(C)SSC1(C)C` [compound 85] (I: Ac-[Pen][NMeR]SDTL[Pen]WF[dK]-NH2 / II: Ac-[Pen][NMeR]SDTL[Pen]WF[dK]-NH2; disulfide I:1-I:7, II:1-II:7; linker I:10-II:10 via Diglycolyl), the IC50 is under 10 nM.
In the case of `CC(=O)N[C@@H]1C(=O)N(C)[C@@H](CCCNC(=N)N)C(=O)N[C@@H](CO)C(=O)N[C@@H](CC(=O)O)C(=O)N[C@@H]([C@@H](C)O)C(=O)N[C@@H](CC(C)C)C(=O)N[C@H](C(=O)N[C@@H](Cc2ccc(O)cc2)C(=O)N[C@H](CCC(=O)O)C(=O)N[C@H](CCCCNC(=O)COCC(=O)NCCCC[C@@H](NC(=O)[C@@H](CCC(=O)O)NC(=O)[C@H](Cc2ccc(O)cc2)NC(=O)[C@H]2NC(=O)[C@H](CC(C)C)NC(=O)[C@H]([C@@H](C)O)NC(=O)[C@H](CC(=O)O)NC(=O)[C@H](CO)NC(=O)[C@H](CCCNC(=N)N)N(C)C(=O)[C@@H](NC(C)=O)C(C)(C)SSC2(C)C)C(N)=O)C(N)=O)C(C)(C)SSC1(C)C` [compound 123] (I: Ac-[Pen][NMeR]SDTL[Pen]Y[dE][dK]-NH2 / II: Ac-[Pen][NMeR]SDTL[Pen]Y[dE][dK]-NH2; disulfide I:1-I:7, II:1-II:7; linker I:10-II:10 via Diglycolyl) it was 50 to 100 nM; in that of `CC(=O)N[C@@H]1C(=O)N(C)[C@@H](CCCNC(=N)N)C(=O)N[C@@H](CO)C(=O)N[C@@H](CC(=O)O)C(=O)N[C@@H]([C@@H](C)O)C(=O)N[C@@H](CC(C)C)C(=O)N[C@H](C(=O)N[C@@H](Cc2c[nH]c3ccccc23)C(=O)N[C@H](CCC(=O)O)C(=O)N[C@H](CCCCNC(=O)CN(CC(=O)NCCCC[C@@H](NC(=O)[C@@H](CCC(=O)O)NC(=O)[C@H](Cc2c[nH]c3ccccc23)NC(=O)[C@H]2NC(=O)[C@H](CC(C)C)NC(=O)[C@H]([C@@H](C)O)NC(=O)[C@H](CC(=O)O)NC(=O)[C@H](CO)NC(=O)[C@H](CCCNC(=N)N)N(C)C(=O)[C@@H](NC(C)=O)C(C)(C)SSC2(C)C)C(N)=O)C(=O)CCNC(=O)CCCCC2SCC3NC(=O)NC32)C(N)=O)C(C)(C)SSC1(C)C` (some centres unmarked) [compound 71], 25 to 50 nM; in that of `CC(=O)N[C@@H]1C(=O)N(C)[C@@H](CCCNC(=N)N)C(=O)N[C@@H](CO)C(=O)N[C@@H](CC(=O)O)C(=O)N[C@@H]([C@@H](C)O)C(=O)N[C@@H](CC(C)C)C(=O)N[C@H](C(=O)N[C@@H](Cc2c[nH]c3ccccc23)C(=O)N[C@H](Cc2c[nH]c3ccccc23)C(=O)N[C@H](CCCCNC(=O)COCC(=O)NCCCC[C@@H](NC(=O)[C@@H](Cc2c[nH]c3ccccc23)NC(=O)[C@H](Cc2c[nH]c3ccccc23)NC(=O)[C@H]2NC(=O)[C@H](CC(C)C)NC(=O)[C@H]([C@@H](C)O)NC(=O)[C@H](CC(=O)O)NC(=O)[C@H](CO)NC(=O)[C@H](CCCNC(=N)N)N(C)C(=O)[C@@H](NC(C)=O)C(C)(C)SSC2(C)C)C(N)=O)C(N)=O)C(C)(C)SSC1(C)C` [compound 110] (I: Ac-[Pen][NMeR]SDTL[Pen]W[dW][dK]-NH2 / II: Ac-[Pen][NMeR]SDTL[Pen]W[dW][dK]-NH2; disulfide I:1-I:7, II:1-II:7; linker I:10-II:10 via Diglycolyl), 10 to 25 nM.
In the case of `CC(=O)N[C@@H]1C(=O)N(C)[C@@H](CCCNC(=N)N)C(=O)N[C@@H](CO)C(=O)N[C@@H](CC(=O)O)C(=O)N[C@@H]([C@@H](C)O)C(=O)N[C@@H](CC(C)C)C(=O)N[C@H](C(=O)N[C@@H](Cc2cccc3ccccc23)C(=O)N[C@H](Cc2ccccc2)C(=O)N[C@H](CCCCNC(=O)COCC(=O)NCCCC[C@@H](NC(=O)[C@@H](Cc2ccccc2)NC(=O)[C@H](Cc2cccc3ccccc23)NC(=O)[C@H]2NC(=O)[C@H](CC(C)C)NC(=O)[C@H]([C@@H](C)O)NC(=O)[C@H](CC(=O)O)NC(=O)[C@H](CO)NC(=O)[C@H](CCCNC(=N)N)N(C)C(=O)[C@@H](NC(C)=O)C(C)(C)SSC2(C)C)C(N)=O)C(N)=O)C(C)(C)SSC1(C)C` [compound 111] (I: Ac-[Pen][NMeR]SDTL[Pen][1Nal][dF][dK]-NH2 / II: Ac-[Pen][NMeR]SDTL[Pen][1Nal][dF][dK]-NH2; disulfide I:1-I:7, II:1-II:7; linker I:10-II:10 via Diglycolyl) it was 100 to 500 nM.

The values above are taken from patent US9809623B2, “α4β7 peptide monomer and dimer antagonists” (Protagonist Therapeutics, Inc., priority 2014, dated 2017).
